What was measured:
[1] = test system: caspase 3 activity; assay: NMDA-mediated increase in caspase 3 activity in pure neuronal culture; assay type: cell-based, Sprague-Dawley rat; conditions: NMDA 300 μM, MTA 100 to 500 μM
Experimental: Primary cultures of brain cortical neurons were essentially prepared as described previously (Bruno et al., 2001, Eur. J. Neurosci., 13:1469-1478). The fronto-lateral cortical lobes were dissected out of Sprague-Dawley embryonic day 17 foetuses and were mechanically dissociated in Hanks' balanced solution. The cortical lobes were triturated by aspirating 7-10 times using a Pasteur pipette with a flame-narrowed tip. […]
Cortical neurons or mixed cortical neurons and glia were plated on poly-L-lysine-coated 6-well culture plates and after 7 DIV, cells were treated with vehicle or NMDA (300 μM) for different periods of time. […] Extracts were then centrifuged at 5,000×g for 10 min at 4° C., and protein content was determined by using the BCA protein assay according to the manufacturer instructions. Cell extracts (40 μg of protein) were incubated in reaction buffer (25 mM Hepes, 10% sucrose, 0.1% CHAPS, 10 mM DTT) containing 50 μM fluorescence substrate Z-DEVD-AFC at 37° C. for 1 h. Cleavage of the AFC fluorophore was determined in a spectrofluorometer at excitation wavelength of 400 nm and fluorescence was detected at an emission wavelength of 505 nm. Caspase 3 activity was expressed as units of fluorescence/mg of protein/h (Posadas et al., 2009, Pharm. Res., In press).

[2] = test system: dopaminergic neurons (TH+ cells) in the substantia nigra; assay: MPTP mice model of Parkinson disease, TH immunohistochemistry; assay type: in vivo, C57B1 mice
Experimental: Male C57B1 mice, with a body ranging in weight from 23 to 31 g were used in this study. MPTP (Sigma) dissolved in 0.9% NaCl was injected intraperitonealy at a dose of 30 mg/kg for 5 days. MTA was dissolved in purified water with 2% of DMSO at a final concentration of 6 mg/ml and was injected intraperitonealy at a dose of […] or 192 μmol/Kg. The first day of the experiment MTA was injected 24 hours before the MPTP injection and during the following four days administration of MTA was 1 hour before the administration of MPTP. Mice were divided in four groups: (1) MPTP (n=6); (2) MPTP plus 96 μmol/Kg MTA (n=6); (3) MPTP plus 192 μmol/Kg MTA (n=9) and (4) Control group (n=2).
At the end of the experiment, animals were anesthetized with an overdose of 10% chloral hydrate in distilled water and then transcardially perfused with saline Ringer's solution followed by 100 ml of a cold fixative solution containing 4% paraformaldehyde and 0.4% glutaraldehyde in 0.125 M PB, pH 7.4. After perfusion, the skull was opened and the brain removed was post-fixed overnight at 4° C. in the same fixative solution and next stored in a cryoprotective solution containing 20% glycerine and 2% dimethylsulphoxide in 0.125 M PB, pH 7.4. Frozen coronal microtome sections (50 μm-thick) were obtained and collected in 0.125 M PB, pH 7.4, in 6 series of adjacent sections. Sections were stored at −80° C. until further processing.
With a random start, every third sections through the entire SN were sampled. The sections were processed free-floating. Endogenous peroxidase activity was removed by incubating the sections in methanol with 1.25% H2O2 for 40 min. […] Histological quantification was done using the CAST system from Olympus using the BX50 microscope and following the methods described by Oorschot (J Comp Neurol 366:580-599, 1996). […] Neurons were counted using the optic dissector every 3 sections at 150 μm distance and at ×400. […]

Compound: CSC[C@H]1O[C@@H](n2cnc3c(N)ncnc32)[C@H](O)[C@@H]1O [MTA, 5′-methylthioadenosine]
- effect on NMDA-mediated increase in caspase 3 activity [1]: Lack of effect
- reduction in the number of TH (dopaminergic) neurons compared to controls ([2]; MPTP 30 mg/kg for 5 days plus MTA 96 μM/day (so in the source)): 10%
- higher number of dopaminergic neurons than MPTP treated animals ([2]; MPTP plus MTA 96 μM/day (so in the source)): 30%
- number of TH neurons versus MPTP animals ([2]; MPTP plus MTA (96 μM as printed)): significantly higher number of TH neurons

Reference: US20120083464A1, “NEUROPROTECTIVE PROPERTIES OF 5'-METHYLTHIOADENOSINE” (priority 2009, published 2012)
